Measurements reported in PubChem BioAssay AID328 (DTP/NCI, 2004).
Inconclusive results and toxic doses are left out.

System: BDF1 mice, P388 leukemia ip, median survival T/C
Test: NCI In Vivo Anticancer Drug Screen. Data for tumor model P388 Leukemia (intraperitoneal) in B6D2F1 (BDF1) mice
Details: endpoint: median survival time, higher = longer survival
How it was run: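 Mice carrying the transplantable tumour receive compound or vehicle. Survival is followed in each arm, and the treated measure is divided by the vehicle measure.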

[1] = dose: 100.0 mg/kg/injection, schedule: Q04DX003 (ip), vehicle: saline with Tween-80
[2] = dose: 100.0 mg/kg/injection, schedule: Q01DX009 (ip), vehicle: saline with Tween-80
[3] = dose: 200.0 mg/kg/injection, schedule: Q01DX009 (ip), vehicle: saline with Tween-80
[4] = dose: 200.0 mg/kg/injection, schedule: Q04DX003 (ip), vehicle: saline with Tween-80
[5] = dose: 400.0 mg/kg/injection, schedule: Q04DX003 (ip), vehicle: saline with Tween-80
[6] = dose: 25.0 mg/kg/injection, schedule: Q04DX003 (ip), vehicle: water
[7] = dose: 50.0 mg/kg/injection, schedule: Q04DX003 (ip), vehicle: water
[8] = dose: 10.0 mg/kg/injection, schedule: Q01DX009 (ip), vehicle: saline
[9] = dose: 20.0 mg/kg/injection, schedule: Q01DX009 (ip), vehicle: saline
[10] = dose: 40.0 mg/kg/injection, schedule: Q01DX009 (ip), vehicle: saline
[11] = dose: 50.0 mg/kg/injection, schedule: Q01DX009 (ip), vehicle: saline with Tween-80
[12] = dose: 100.0 mg/kg/injection, schedule: Q01DX009 (ip), vehicle: saline
[13] = dose: 400.0 mg/kg/injection, schedule: Q01DX009 (ip), vehicle: saline
[14] = dose: 100.0 mg/kg/injection, schedule: Q01DX009 (ip), vehicle: Klucel (hydroxypropylcellulose) (HPC)
[15] = dose: 200.0 mg/kg/injection, schedule: Q01DX009 (ip), vehicle: Klucel (hydroxypropylcellulose) (HPC)
[16] = dose: 400.0 mg/kg/injection, schedule: Q01DX009 (ip), vehicle: Klucel (hydroxypropylcellulose) (HPC)

Cc1nc2c(NC(=O)CCl)nn(C)c2nc1C
T/C (dose: 25.0 mg/kg/injection, schedule: Q04DX003 (ip), vehicle: saline with Tween-80): 105 % of control
T/C (dose: 50.0 mg/kg/injection, schedule: Q04DX003 (ip), vehicle: saline with Tween-80): 110 % of control
T/C [1]: 95 % of control

CCCCN(C(=O)C(F)(F)F)C(C)(C)C(SSSC(c1ccc(Cl)cc1)C(C)(C)N(CCCC)C(=O)C(F)(F)F)c1ccc(Cl)cc1 (configuration not stated)
T/C [2]: 100 % of control
T/C [1]: 100 % of control
T/C [3]: 100 % of control
T/C [4]: 100 % of control
T/C (dose: 400.0 mg/kg/injection, schedule: Q01DX009 (ip), vehicle: saline with Tween-80): 100 % of control
T/C [5]: 118 % of control

O=C1c2ccccc2-c2cc3ccccc3cc21
T/C (dose: 75.0 mg/kg/injection, schedule: Q04DX003 (ip), vehicle: saline sonified): 100 % of control
T/C (dose: 150.0 mg/kg/injection, schedule: Q04DX003 (ip), vehicle: saline sonified): 110 % of control
T/C (dose: 300.0 mg/kg/injection, schedule: Q04DX003 (ip), vehicle: saline sonified): 110 % of control

Nc1ccn(CC(=O)N2CCOCC2)c(=O)n1
T/C [6]: 106 % of control
T/C [7]: 103 % of control
T/C (dose: 100.0 mg/kg/injection, schedule: Q04DX003 (ip), vehicle: water): 89 % of control
T/C (dose: 200.0 mg/kg/injection, schedule: Q04DX003 (ip), vehicle: water): 103 % of control
T/C (dose: 400.0 mg/kg/injection, schedule: Q04DX003 (ip), vehicle: water): 94 % of control

O=c1[nH]cnc2c(C3OC(CO)C(O)C3O)[nH]nc12 (configuration not stated)
T/C [8]: 91 % of control
T/C [9]: 100 % of control
T/C [10]: 91 % of control

O=C1/C(=C\c2ccccc2)C(Br)c2ccccc21 (configuration not stated)
T/C (dose: 1.56 mg/kg/injection, schedule: Q01DX009 (ip), vehicle: water): 87 % of control
T/C (dose: 3.12 mg/kg/injection, schedule: Q01DX009 (ip), vehicle: water): 108 % of control
T/C (dose: 6.25 mg/kg/injection, schedule: Q01DX009 (ip), vehicle: water): 108 % of control
T/C (dose: 6.25 mg/kg/injection, schedule: Q04DX003 (ip), vehicle: water): 100 % of control
T/C (dose: 12.5 mg/kg/injection, schedule: Q01DX009 (ip), vehicle: water): 110 % of control
T/C (dose: 12.5 mg/kg/injection, schedule: Q04DX003 (ip), vehicle: water): 105 % of control
T/C (dose: 25.0 mg/kg/injection, schedule: Q01DX009 (ip), vehicle: water): 110 % of control
T/C [6]: 105 % of control
T/C [7]: 91 % of control

OC1CCC2(CC1)Cc1ccccc1C2O (configuration not stated)
T/C (dose: 100.0 mg/kg/injection, schedule: Q01DX001 (ip), vehicle: saline with Tween-80): 114 % of control
T/C (dose: 200.0 mg/kg/injection, schedule: Q01DX001 (ip), vehicle: saline with Tween-80): 119 % of control
T/C (dose: 400.0 mg/kg/injection, schedule: Q01DX001 (ip), vehicle: saline with Tween-80): 119 % of control

Cc1[nH]c(=O)[nH]c(=O)c1I
T/C [11]: 105 % of control
T/C [2]: 99 % of control
T/C [3]: 101 % of control

O=C1c2c(O)ccc(O)c2C(=O)c2c(NCCOCCO)ccc(NCCOCCO)c21
T/C (dose: 25.0 mg/kg/injection, schedule: Q01DX005 (ip), vehicle: saline with Tween-80): 102 % of control
T/C (dose: 50.0 mg/kg/injection, schedule: Q01DX005 (ip), vehicle: saline with Tween-80): 100 % of control
T/C (dose: 100.0 mg/kg/injection, schedule: Q01DX005 (ip), vehicle: saline with Tween-80): 118 % of control
T/C (dose: 200.0 mg/kg/injection, schedule: Q01DX005 (ip), vehicle: saline with Tween-80): 109 % of control

CS(=O)(=O)OCCCNCCCOS(C)(=O)=O
T/C [8]: 228 % of control
T/C (dose: 10.0 mg/kg/injection, schedule: Q01DX010 (ip), vehicle: saline): 255 % of control
T/C (dose: 12.0 mg/kg/injection, schedule: Q04DX003 (ip), vehicle: saline): 186 % of control
T/C (dose: 19.0 mg/kg/injection, schedule: Q04DX003 (ip), vehicle: saline): 204 % of control
T/C [9]: 255 % of control
T/C (dose: 20.0 mg/kg/injection, schedule: Q01DX010 (ip), vehicle: saline): 300 % of control
T/C (dose: 29.0 mg/kg/injection, schedule: Q04DX003 (ip), vehicle: saline): 209 % of control
T/C [10]: 282 % of control
T/C (dose: 40.0 mg/kg/injection, schedule: Q01DX010 (ip), vehicle: saline): 300 % of control
T/C (dose: 45.0 mg/kg/injection, schedule: Q04DX003 (ip), vehicle: saline): 240 % of control
T/C (dose: 66.0 mg/kg/injection, schedule: Q04DX003 (ip), vehicle: saline): 245 % of control
T/C (dose: 80.0 mg/kg/injection, schedule: Q01DX010 (ip), vehicle: saline): 94 % of control
T/C (dose: 150.0 mg/kg/injection, schedule: Q04DX003 (ip), vehicle: saline): 300 % of control

Cc1nn(C2CC(O)C(O)C(CO)O2)c(=O)[nH]c1=O (configuration not stated)
T/C (dose: 50.0 mg/kg/injection, schedule: Q01DX009 (ip), vehicle: saline): 98 % of control
T/C [12]: 99 % of control
T/C (dose: 200.0 mg/kg/injection, schedule: Q01DX009 (ip), vehicle: saline): 97 % of control
T/C [13]: 106 % of control

C=C1CCCCC1O (configuration not stated)
T/C [11]: 101 % of control
T/C [2]: 95 % of control
T/C [3]: 101 % of control

CC1(C)COC(C)(C(=O)NN)OC1
T/C (dose: 100.0 mg/kg/injection, schedule: Q04DX002 (ip), vehicle: saline): 104 % of control
T/C (dose: 200.0 mg/kg/injection, schedule: Q04DX002 (ip), vehicle: saline): 101 % of control
T/C (dose: 400.0 mg/kg/injection, schedule: Q04DX002 (ip), vehicle: saline): 92 % of control

O=C(COc1cccc(Cl)c1)Nc1cccnc1
T/C (dose: 100.0 mg/kg/injection, schedule: Q01DX001 (ip), vehicle: Klucel (hydroxypropylcellulose) (HPC)): 99 % of control
T/C (dose: 200.0 mg/kg/injection, schedule: Q01DX001 (ip), vehicle: Klucel (hydroxypropylcellulose) (HPC)): 99 % of control

CCCc1cc(CCC)n2nc(N)nc2n1
T/C [11]: 109 % of control
T/C [2]: 100 % of control

O=S1(=O)C=C(c2ccccc2)C1
T/C [11]: 108 % of control
T/C [2]: 107 % of control

CCCCC(=O)C1=C(O)C(Nc2ccccc2)=CC(=O)C1=Nc1ccccc1
T/C [1]: 98 % of control
T/C [4]: 103 % of control
T/C [5]: 100 % of control

NC(=O)N/N=C/c1ccccc1N
T/C [14]: 90 % of control
T/C [15]: 100 % of control
T/C [16]: 100 % of control

CC1(c2ccc(N(CCCl)CCCl)cc2)NC(=O)NC1=O (configuration not stated)
T/C (dose: 6.25 mg/kg/injection, schedule: Q01DX009 (ip), vehicle: Klucel (hydroxypropylcellulose) (HPC)): 121 % of control
T/C (dose: 12.5 mg/kg/injection, schedule: Q01DX009 (ip), vehicle: Klucel (hydroxypropylcellulose) (HPC)): 122 % of control
T/C (dose: 25.0 mg/kg/injection, schedule: Q01DX009 (ip), vehicle: Klucel (hydroxypropylcellulose) (HPC)): 191 % of control
T/C [14]: 260 % of control

COc1ccc(-c2noc(=O)c3ccccc23)cc1
T/C [11]: 102 % of control
T/C [2]: 100 % of control
T/C [3]: 114 % of control

O=C(COc1cc(Cl)c(Cl)cc1Cl)OCCN(CCOC(=O)COc1cc(Cl)c(Cl)cc1Cl)C(=O)COc1ccc(Cl)cc1
T/C (dose: 100.0 mg/kg/injection, schedule: Q04DX003 (ip), vehicle: other): 100 % of control
T/C (dose: 200.0 mg/kg/injection, schedule: Q04DX003 (ip), vehicle: other): 86 % of control
T/C (dose: 400.0 mg/kg/injection, schedule: Q04DX003 (ip), vehicle: other): 100 % of control

Nc1c(Br)cc(Br)c2ccccc12
T/C [14]: 95 % of control
T/C [15]: 113 % of control
T/C [16]: 109 % of control

CC1CCC2(C)CCC(C(C)C)C2(O)CC1 (configuration not stated)
T/C [12]: 103 % of control
T/C (dose: 100.0 mg/kg/injection, schedule: Q04DX003 (ip), vehicle: saline): 100 % of control
T/C (dose: 200.0 mg/kg/injection, schedule: Q04DX003 (ip), vehicle: saline): 109 % of control
T/C [13]: 111 % of control
T/C (dose: 400.0 mg/kg/injection, schedule: Q04DX003 (ip), vehicle: saline): 100 % of control
